The values that follow come from ChEMBL document CHEMBL3870348, “Discovery of a new isomannide-based peptidomimetic synthetized by Ugi multicomponent reaction as human tissue kallikrein 1 inhibitor” (Bioorg Med Chem Lett, 2017).

Structures are written as SMILES. Active and inactive are the calls of the source. The calls are words filed in the database; no cut-off is given here.

The target of test [1] is T1, Kallikrein-1 (Homo sapiens, UniProt P06870). The experiment in a line: Reversible competitive inhibition of recombinant human KLK1 expressed in baculovirus/insect cell expression system using Abz-KLRSSKQ-EDDnp peptide as substrate at 2 to 8 uM by Lineweaver-Burk plot analysis.
Target sequence in this assay (P06870 25-262 limits assumed): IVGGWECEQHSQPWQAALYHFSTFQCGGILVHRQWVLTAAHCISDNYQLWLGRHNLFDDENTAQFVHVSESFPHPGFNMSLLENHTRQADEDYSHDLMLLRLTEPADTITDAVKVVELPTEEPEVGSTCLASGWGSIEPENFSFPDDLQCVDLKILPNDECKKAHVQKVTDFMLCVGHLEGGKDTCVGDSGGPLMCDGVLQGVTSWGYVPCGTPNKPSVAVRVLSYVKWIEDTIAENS
Test [2] concerns the target T1, Kallikrein-1. The test can be described thus: Competitive inhibition of recombinant human KLK1 expressed in baculovirus/insect cell expression system using Abz-KLRSSKQ-EDDnp peptide as substrate by Dixon plot analysis.
Target sequence in this assay (P06870 whole entry): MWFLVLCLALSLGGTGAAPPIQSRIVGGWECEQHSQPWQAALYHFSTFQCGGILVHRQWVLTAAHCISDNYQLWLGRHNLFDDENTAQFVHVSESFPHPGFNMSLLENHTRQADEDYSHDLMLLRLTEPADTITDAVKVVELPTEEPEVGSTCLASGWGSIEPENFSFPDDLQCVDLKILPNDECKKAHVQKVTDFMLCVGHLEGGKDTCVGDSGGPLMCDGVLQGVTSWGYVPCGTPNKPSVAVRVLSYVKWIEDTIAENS
Test [3] concerns the target T1, Kallikrein-1. The experiment in a line: Inhibition of recombinant human KLK1 expressed in baculovirus/insect cell expression system using Abz-KLRSSKQ-EDDnp peptide as substrate preincubated for 5 mins followed by substrate addition by FRET assay.
Target sequence in this assay (P06870 whole entry): as above
The target of test [4] is T2, Kallikrein-7 (Homo sapiens, UniProt P49862). The experiment in a line: Inhibition of recombinant human KLK7 expressed in baculovirus/insect cell expression system at 100 uM using Abz-KLYSSKQ-EDDnp peptide as substrate preincubated for 5 mins followed by substrate addition by FRET assay.
Target sequence in this assay (P49862 30-253 limits assumed): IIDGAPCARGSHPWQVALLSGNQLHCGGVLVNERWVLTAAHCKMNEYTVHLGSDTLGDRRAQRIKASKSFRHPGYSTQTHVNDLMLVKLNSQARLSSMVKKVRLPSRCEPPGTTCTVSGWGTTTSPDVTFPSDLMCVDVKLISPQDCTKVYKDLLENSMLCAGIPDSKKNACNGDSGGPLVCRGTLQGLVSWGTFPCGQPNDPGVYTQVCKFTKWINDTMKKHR
Test [5] deals with T2, Kallikrein-7. The test can be described thus: Inhibition of recombinant human KLK7 expressed in baculovirus/insect cell expression system using Abz-KLYSSKQ-EDDnp peptide as substrate preincubated for 5 mins followed by substrate addition by FRET assay.
Target sequence in this assay (P49862 whole entry): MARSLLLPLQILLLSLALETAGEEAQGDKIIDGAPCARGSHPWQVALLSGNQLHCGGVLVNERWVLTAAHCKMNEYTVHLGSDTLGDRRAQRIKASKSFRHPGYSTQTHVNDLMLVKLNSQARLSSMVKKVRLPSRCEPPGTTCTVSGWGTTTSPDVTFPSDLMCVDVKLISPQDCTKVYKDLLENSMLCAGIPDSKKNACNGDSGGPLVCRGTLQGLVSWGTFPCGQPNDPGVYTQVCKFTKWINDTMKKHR
Test [6] deals with T1, Kallikrein-1. The test can be described thus: Inhibition of recombinant human KLK1 expressed in baculovirus/insect cell expression system at 100 uM using Abz-KLRSSKQ-EDDnp peptide as substrate preincubated for 5 mins followed by substrate addition by FRET assay.
Target sequence in this assay (P06870 25-262 limits assumed): as the sequence (P06870 25-262 limits assumed) above

The Ki is a dissociation constant, usually derived from enzyme kinetics or from competition with a known ligand. A word on the IC50: it is the midpoint of a concentration-inhibition curve. With `CC(C)(C(=O)NC1CCCCC1)N(C(=O)Cc1ccc(O)cc1)[C@H]1CO[C@H]2[C@@H]1OC[C@H]2OCc1ccccc1`, the inhibition result in test [1], in test [4] and in test [6] was “Active” throughout. The Ki in test [2] came to 3.1 µM. Besides, the figures for the IC50 in test [3] and in test [5] were 4 µM and 249 µM, respectively.
For `CC(C)(C(=O)NC1CCCCC1)N(C(=O)Cc1ccc(F)cc1)[C@H]1CO[C@H]2[C@@H]1OC[C@H]2OCc1ccccc1`, the IC50 was 221 µM in test [3] and 185 µM in test [5]. Besides, the inhibition result in test [4] and in test [6] was “Active” throughout.
Consider `CC(C)(C(=O)NC1CCCCC1)N(C(=O)c1ccccc1)[C@H]1CO[C@H]2[C@@H]1OC[C@H]2OCc1ccccc1`, for which the IC50 in test [3] came to 400 µM; in test [5], 572 µM. Also, the inhibition result in test [4] and in test [6] was “Active” each time.
As to `COc1ccc(CC(=O)N([C@H]2CO[C@H]3[C@@H]2OC[C@H]3OCc2ccccc2)C(C)(C)C(=O)NC2CCCCC2)cc1`, the IC50 in test [3] amounted to 125 µM; in test [5], 272 µM. In addition, the inhibition result in test [4] and in test [6] was “Active” in each case.
Take `CC(C)(C(=O)NC1CCCCC1)N(C(=O)Cc1ccc(O)cc1)[C@H]1CO[C@H]2[C@@H]1OC[C@@H]2N(C(=O)Cc1ccc(O)cc1)C(C)(C)C(=O)NC1CCCCC1`: the IC50 in test [3] is 12.6 µM; in test [5] it was 133 µM. Besides, the inhibition result in test [4] and in test [6] was “Active” each time.
